20 molecules from ChEMBL document CHEMBL3871285, “NTS2-selective neurotensin mimetics with tetrahydrofuran amino acids” (Bioorg Med Chem, 2017) can be followed below.

*1 amine or outer side, *2 acyl side, *3 side chain or, on linkers, in order; H or OH if unused. Where a SMILES comes first, the peptide text is derived from it. [ ]: non-standard residue; d: D form. X2 = O=C([C@]1(N[*:1])CCO[C@@H]1c1ccc(Br)cc1)[*:2]; X1 = O=C([C@@]1(N[*:1])CCO[C@H]1c1ccc(O)cc1)[*:2]; X3 = O=C([C@]1(N[*:1])CCO[C@@H]1c1ccc(O)cc1)[*:2]

The target of assay [1] is Neurotensin receptor type 2 (Homo sapiens, UniProt O95665). The assay can be described thus: Displacement of [leucine-3H]NT (8 to 13 residues) from human NTS2 receptor expressed in HEK293 cell membranes after 60 mins by scintillation counting.
Chain of Neurotensin receptor type 2 (O95665 whole entry, the tested form may be a part): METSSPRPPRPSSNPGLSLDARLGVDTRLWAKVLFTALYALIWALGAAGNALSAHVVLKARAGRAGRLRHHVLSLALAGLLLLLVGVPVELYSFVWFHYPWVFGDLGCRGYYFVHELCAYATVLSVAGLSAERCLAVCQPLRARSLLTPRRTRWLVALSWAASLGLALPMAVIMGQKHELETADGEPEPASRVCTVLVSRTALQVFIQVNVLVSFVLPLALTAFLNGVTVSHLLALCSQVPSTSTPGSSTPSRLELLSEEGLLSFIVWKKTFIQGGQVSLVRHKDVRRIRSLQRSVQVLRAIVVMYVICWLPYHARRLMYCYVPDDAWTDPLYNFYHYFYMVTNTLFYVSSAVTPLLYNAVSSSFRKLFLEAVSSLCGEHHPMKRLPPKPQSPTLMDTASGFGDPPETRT
For assay [2], the target named is Neurotensin receptor type 1 (Homo sapiens, UniProt P30989). The assay can be described thus: Displacement of [3H]neurotensin from human NTS1 receptor expressed in CHOK1 cell membranes after 60 mins by scintillation counting. Details: species or system CHO-K1. A general note: Loss of bound radioactivity is the signal in a displacement assay; it reports binding, not function.
Chain of Neurotensin receptor type 1 (P30989 whole entry): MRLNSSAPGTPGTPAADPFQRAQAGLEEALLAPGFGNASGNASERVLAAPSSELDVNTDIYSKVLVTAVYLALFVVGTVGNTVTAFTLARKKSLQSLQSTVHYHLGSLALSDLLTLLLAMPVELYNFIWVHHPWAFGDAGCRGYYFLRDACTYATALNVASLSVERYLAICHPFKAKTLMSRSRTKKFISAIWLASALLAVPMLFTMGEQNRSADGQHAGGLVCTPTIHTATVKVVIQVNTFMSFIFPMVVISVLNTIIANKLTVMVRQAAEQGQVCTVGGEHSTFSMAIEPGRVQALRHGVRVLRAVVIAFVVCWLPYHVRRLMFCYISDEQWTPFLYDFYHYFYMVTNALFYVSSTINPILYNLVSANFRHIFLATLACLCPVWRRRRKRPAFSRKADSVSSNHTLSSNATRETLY

Assay [3] is described as follows: Selectivity ratio of IC50 for human NTS1 receptor expressed in CHOK1 cell membranes to IC50 for NTS2 receptor expressed in HEK293 cell membranes.

The molecule `CC[C@H](C)[C@H](NC(=O)C1(NC(=O)[C@@H]2CCCN2C(=O)[C@H](CCCNC(=N)N)NC(=O)[C@@H](N)CCCNC(=N)N)CCOC1c1ccc(Br)cc1)C(=O)N[C@@H](CC(C)C)C(=O)O` (some centres undefined) showed a Ki in assay [1] of 0.012 µM. The same measure, in the same setting: the value for `CC[C@H](C)[C@H](NC(=O)[C@]1(NC(=O)[C@@H]2CCCN2C(=O)[C@H](CCCNC(=N)N)NC(=O)[C@@H](N)CCCNC(=N)N)CCO[C@@H]1c1ccc(Br)cc1)C(=O)N[C@@H](CC(C)C)C(=O)O` was 0.615 µM. `CC[C@H](C)[C@H](NC(=O)[C@@H](Cc1ccc(Br)cc1)NC(=O)[C@@H]1CCCN1C(=O)[C@H](CCCCN)NC(=O)[C@@H](N)CCCCN)C(=O)N[C@@H](CC(C)C)C(=O)O`: the Ki in assay [1] worked out at 0.873 µM; in assay [2], 2.17 µM. `CC[C@H](C)[C@H](NC(=O)[C@]1(NC(=O)[C@@H]2CCCN2C(=O)[C@H](CCCNC(=N)N)NC(=O)[C@@H](N)CCCNC(=N)N)CCO[C@@H]1c1ccc(O)cc1)C(=O)N[C@@H](CC(C)C)C(=O)O` had a Ki in assay [1] of 0.012 µM. Turning to `CC[C@H](C)[C@H](NC(=O)[C@H](Cc1ccc(Br)cc1)NC(=O)[C@@H]1CCCN1C(=O)[C@H](CCCCN)NC(=O)[C@@H](N)CCCCN)C(=O)N[C@@H](CC(C)C)C(=O)O`, the Ki in assay [1] was 0.069 µM; in assay [2] it was 0.093 µM. Turning to `CC[C@H](C)[C@H](NC(=O)[C@]1(NC(=O)[C@@H]2CCCN2C(=O)[C@H](CCCCN)NC(=O)[C@@H](N)CCCCN)CCO[C@@H]1c1ccc(Br)cc1)C(=O)N[C@@H](CC(C)C)C(=O)O` (H-KKP[X2]IL-OH), the Ki in assay [2] was 13 µM.

For `CC[C@H](C)[C@H](NC(=O)[C@]1(NC(=O)[C@@H]2CCCN2C(=O)[C@H](CCCNC(=N)N)NC(=O)[C@@H](N)CCCCN)CCO[C@@H]1c1ccc(Br)cc1)C(=O)N[C@@H](CC(C)C)C(=O)O` (H-KRP[X2]IL-OH), the Ki was determined as 0.11 µM in assay [1] and 5 µM in assay [2].

In assay [2], `CC[C@H](C)[C@H](NC(=O)[C@]1(NC(=O)[C@@H]2CCCN2C(=O)[C@H](CCCCN)NC(=O)[C@@H](N)CCCNC(=N)N)CCO[C@@H]1c1ccc(Br)cc1)C(=O)N[C@@H](CC(C)C)C(=O)O` (H-RKP[X2]IL-OH) showed a Ki of 10 µM. For `CC(C)C[C@H](NC(=O)CNC(=O)[C@@]1(NC(=O)[C@@H]2CCCN2C(=O)[C@H](CCCNC(=N)N)NC(=O)[C@@H](N)CCCNC(=N)N)CCO[C@H]1c1ccc(O)cc1)C(=O)O` (H-RRP[X1]GL-OH), the Ki in assay [1] is 0.029 µM; in assay [2], 35 µM. In addition, the “Ratio Ki” value in assay [3] is >1000. Turning to `CC(C)C[C@H](NC(=O)CNC(=O)[C@]1(NC(=O)[C@@H]2CCCN2C(=O)[C@H](CCCNC(=N)N)NC(=O)[C@@H](N)CCCNC(=N)N)CCO[C@@H]1c1ccc(O)cc1)C(=O)O` (H-RRP[X3]GL-OH), the figures for the Ki in assay [1] and in assay [2] were 0.7 µM and 20 µM, respectively. As for `CC(C)C[C@H](NC(=O)C1(NC(=O)[C@@H]2CCCN2C(=O)[C@H](CCCCN)NC(=O)[C@@H](N)CCCCN)CCOC1c1ccc(Br)cc1)C(=O)O` (stereo in doubt; 7-1), the Ki in assay [1] turned out to be 27 µM; in assay [2], 67 µM. On the same counts, the results for `CC(C)C[C@H](NC(=O)C1(NC(=O)[C@@H]2CCCN2C(=O)[C@H](CCCCN)NC(=O)[C@@H](N)CCCCN)CCOC1c1ccc(Br)cc1)C(=O)O` (stereo in doubt; 7-2) are 2.03 µM and 95.5 µM.

Turning to `CC(C)C[C@H](NC(=O)C1(NC(=O)[C@@H]2CCCN2C(=O)[C@H](CCCNC(=N)N)NC(=O)[C@@H](N)CCCCN)CCOC1c1ccc(Br)cc1)C(=O)O` (stereo in doubt; 8-1), the Ki in assay [1] was 28 µM; in assay [2] it was 53 µM.

Take `CC(C)C[C@H](NC(=O)C1(NC(=O)[C@@H]2CCCN2C(=O)[C@H](CCCNC(=N)N)NC(=O)[C@@H](N)CCCCN)CCOC1c1ccc(Br)cc1)C(=O)O` (stereo in doubt; 8-2): the Ki was 11 µM in assay [1] and 92.3 µM in assay [2]. Molecule `CC(C)C[C@H](NC(=O)C1(NC(=O)[C@@H]2CCCN2C(=O)[C@H](CCCCN)NC(=O)[C@@H](N)CCCNC(=N)N)CCOC1c1ccc(Br)cc1)C(=O)O` (stereo in doubt; 9-1) returned a Ki in assay [2] of 70.5 µM.

For the molecule `CC(C)C[C@H](NC(=O)C1(NC(=O)[C@@H]2CCCN2C(=O)[C@H](CCCCN)NC(=O)[C@@H](N)CCCNC(=N)N)CCOC1c1ccc(Br)cc1)C(=O)O` (stereo in doubt; 9-2), in assay [2], the Ki is > 100 µM. For the molecule `CC(C)C[C@H](NC(=O)C1(NC(=O)[C@@H]2CCCN2C(=O)[C@H](CCCNC(=N)N)NC(=O)[C@@H](N)CCCNC(=N)N)CCOC1c1ccc(Br)cc1)C(=O)O` (stereo in doubt; 10-1), the Ki in assay [1] turned out to be 49 µM; in assay [2], 91.5 µM. With `CC(C)C[C@H](NC(=O)C1(NC(=O)[C@@H]2CCCN2C(=O)[C@H](CCCNC(=N)N)NC(=O)[C@@H](N)CCCNC(=N)N)CCOC1c1ccc(Br)cc1)C(=O)O` (stereo in doubt; 10-2), the Ki in assay [1] was determined as 1.43 µM; in assay [2] it was 72.5 µM. On the same counts, the results for `CC(C)C[C@H](NC(=O)CNC(=O)C1(NC(=O)[C@@H]2CCCN2C(=O)[C@H](CCCCN)NC(=O)[C@@H](N)CCCCN)CCOC1c1ccc(Br)cc1)C(=O)O` (stereo in doubt; 16-1) are 0.5 µM and > 50 µM. On the same counts, the results for `CC(C)C[C@H](NC(=O)CNC(=O)C1(NC(=O)[C@@H]2CCCN2C(=O)[C@H](CCCCN)NC(=O)[C@@H](N)CCCCN)CCOC1c1ccc(Br)cc1)C(=O)O` (stereo in doubt; 16-2) are 1.95 µM and 35 µM.

What is called Ki is a measure of affinity in units of concentration, obtained from inhibition or displacement. A high value points to weaker binding.
